Measured values from patent publication US10987359B2, “Oxadiazepinone derivatives and methods of treating hepatitis B infections” (priority 2016, dated 2021).

What follows are compounds tested on HBV (assay: HBV replication inhibition assay (BDNA assay) in HepG2.2.15 cells). Conditions: HBV replication assay (BDNA assay), HepG2.2.15 cells; read-out: DNA EC50.
Format: cell-based
Procedure: HBV replication inhibition by the disclosed compounds were determined in cells infected or transfected with HBV or cells with stably integrated HBV, such as HepG2.2.15 cells (Sells et al. 1987). In this example, HepG2.2.15 cells were maintained in cell culture medium containing 10% fetal bovine serum (FBS), Geneticin, L-glutamine, penicillin and streptomycin. HepG2.2.15 cells were seeded in 96-well plates at a density of 40,000 cells/well and were treated with serially diluted compounds at a final DMSO concentration of 0.5% either alone or in combination by adding drugs in a checker box format. Cells were incubated with compounds for three days, after which medium was removed and fresh medium containing compounds was added to cells and incubated for another three days. At day 6, supernatant was removed and treated with DNase at 37° C. for 60 minutes, followed by enzyme inactivation at 75° C. for 15 minutes. Encapsidated HBV DNA was released from the virions and covalently linked HBV polymerase by incubating in lysis buffer (Affymetrix QS0010) containing 2.5 μg proteinase K at 50° C. for 40 minutes. HBV DNA was denatured by addition of 0.2 M NaOH and detected using a branched DNA (BDNA) QuantiGene assay kit according to manufacturer recommendation (Affymetrix). HBV DNA levels were also quantified using qPCR, based on amplification of encapsidated HBV DNA extraction with QuickExtraction Solution (Epicentre Biotechnologies) and amplification of HBV DNA using HBV specific PCR probes that can hybridize to HBV DNA and a fluorescently labeled probe for quantitation. In addition, cell viability of HepG2.2.15 cells incubated with test compounds alone or in combination was determined by using CellTitre-Glo reagent according to the manufacturer protocol (Promega). The mean background signal from wells containing only culture medium was subtracted from all other samples, and percent inhibition at each compound concentration was calculated by normalizing to signals from HepG2.2.15 cells treated with 0.5% DMSO using equation E1. % inhibition=(DMSOave−Xi)/DMSOave×100% E1: […]
where DMSOave is the mean signal calculated from the wells that were treated with DMSO control (0% inhibition control) and Xi is the signal measured from the individual wells. EC50 values, effective concentrations that achieved 50% inhibitory effect, were determined by non-linear fitting using Graphpad Prism software (San Diego, Calif.) and equation E2: Y=Y min+(Y max−Y min)/(1+10(Log EC50−X)×HillSlope) E2: […]
where Y represents percent inhibition values and X represents the logarithm of compound concentrations.
Selected disclosed compounds were assayed in the HBV replication assay (BDNA assay), as described above, and a representative group of these active compounds is shown in Table 7. […] In Table 7, “A” represents 1<EC50≤100; “B” represents 100<EC50≤500; “C” represents 500<EC50≤1000; and “D” represents EC50>1000.

Structure (SMILES)	EC50 [nM]
C[C@@H]1Cc2nn3c(c2CN1C(=O)Nc1ccc(F)c(C#N)c1)C(=O)N(C)OC(C(=O)N(C)CC(F)F)C3 (stereo in doubt) [Compound 155_D2, (4R*,9R)—N10-(3-cyano-4-fluorophenyl)-N4-(2,2-difluoroethyl)-N4,2,9-trimethyl-1-oxo-1,4,5,8,9,11-hexahydropyrido[4′,3′:3,4]pyrazolo[5,1-d][1,2,5]oxadiazepine-4,10(2H)-dicarboxamide]	1 to 100
C[C@@H]1Cc2nn3c(c2CN1C(=O)Nc1cc(Br)c(F)cc1F)C(=O)N(C)OC(CN(C)C)C3 (stereo in doubt) [Compound 100_D1, (4S*,9R)—N-(5-bromo-2,4-difluorophenyl)-4-((dimethylamino)methyl)-2,9-dimethyl-1-oxo-1,4,5,8,9,11-hexahydropyrido[4′,3′:3,4]pyrazolo[5,1-d][1,2,5]oxadiazepine-10(2H)-carboxamide]	100 to 500
C[C@@H]1Cc2nn3c(c2CN1C(=O)Nc1ccc(F)c(C(F)(F)F)c1)C(=O)N(C)OC(CN)C3 (stereo in doubt) [Compound 116_D2, (4R*,9R)-4-(aminomethyl)-N-(4-fluoro-3-(trifluoromethyl)phenyl)-2,9-dimethyl-1-oxo-1,4,5,8,9,11-hexahydropyrido[4′,3′:3,4]pyrazolo[5,1-d][1,2,5]oxadiazepine-10(2H)-carboxamide]	1 to 100
Cc1cc(NC(=O)N2Cc3c(nn4c3C(=O)N(C)OC(CNCC(F)F)C4)C[C@H]2C)ccc1F (stereo in doubt) [Compound 185_D2, (4R*,9R)-4-(((2,2-difluoroethyl)amino)methyl)-N-(4-fluoro-3-methylphenyl)-2,9-dimethyl-1-oxo-1,4,5,8,9,11-hexahydropyrido[4′,3′:3,4]pyrazolo[5,1-d][1,2,5]oxadiazepine-10(2H)-carboxamide]	1 to 100

Same assay, conditions: Hepatitis B virus, HepG2.2.15, HBV replication assay (BDNA assay), HepG2.2.15 cells; read-out: DNA EC50

Structure (SMILES)	EC50 [nM]
C[C@@H]1Cc2nn3c(c2CN1C(=O)Nc1ccc(F)c(Cl)c1)C(=O)N(C)OC(CF)C3 (single isomer, unassigned) [Compound 088_E1, (4S*,9R)—N-(3-chloro-4-fluorophenyl)-4-(fluoromethyl)-2,9-dimethyl-1-oxo-1,4,5,8,9,11-hexahydropyrido[4′,3′:3,4]pyrazolo[5,1-d][1,2,5]oxadiazepine-10(2H)-carboxamide]	1 to 100
CC(=O)NCC1Cn2nc3c(c2C(=O)N(C)O1)CN(C(=O)Nc1ccc(F)c(C#N)c1)CC3 (single isomer, unassigned) [Compound 168_E1, (S*)-4-(acetamidomethyl)-N-(3-cyano-4-fluorophenyl)-2-methyl-1-oxo-1,4,5,8,9,11-hexahydropyrido[4′,3′:3,4]pyrazolo[5,1-d][1,2,5]oxadiazepine-10(2H)-carboxamide]	1 to 100
C[C@@H]1Cc2nn3c(c2CN1C(=O)Nc1ccc(F)c(C(F)(F)F)c1)C(=O)N(C)OC(CN(C)C)C3 (stereo in doubt) [Compound 098_D1, (4S*,9R)-4-((dimethylamino)methyl)-N-(4-fluoro-3-(trifluoromethyl)phenyl)-2,9-dimethyl-1-oxo-1,4,5,8,9,11-hexahydropyrido[4′,3′:3,4]pyrazolo[5,1-d][1,2,5]oxadiazepine-10(2H)-carboxamide]	1 to 100
CN1OC(CNC(=O)CC#N)Cn2nc3c(c2C1=O)CN(C(=O)Nc1ccc(F)c(Cl)c1)CC3 (centres unmarked) [Compound 205, N-(3-chloro-4-fluorophenyl)-4-((2-cyanoacetamido)methyl)-2-methyl-1-oxo-1,4,5,8,9,11-hexahydropyrido[4′,3′:3,4]pyrazolo[5,1-d][1,2,5]oxadiazepine-10(2H)-carboxamide]	1 to 100
C[C@@H]1Cc2nn3c(c2CN1C(=O)Nc1ccc(F)c(C(F)(F)F)c1)C(=O)N(C)OCC3 [Compound 076, (R)—N-(4-fluoro-3-(trifluoromethyl)phenyl)-2,9-dimethyl-1-oxo-1,4,5,8,9,11-hexahydropyrido[4′,3′:3,4]pyrazolo[5,1-d][1,2,5]oxadiazepine-10(2H)-carboxamide]	1 to 100
C[C@@H]1Cc2nn3c(c2CN1C(=O)Nc1cc(C(F)(F)F)ccc1F)C(=O)N(C)O[C@H](CO)C3 (relative stereo) [Compound 157_D1, (4S*,9R)—N-[2-fluoro-5-(trifluoromethyl)phenyl]-4-(hydroxymethyl)-2,9-dimethyl-1-oxo-5,8,9,11-tetrahydro-4H-pyrido[2,3]pyrazolo[2,4-d][1,2,5]oxadiazepine-10-carboxamide]	1 to 100
CN1OC(C(=O)N2CCC(F)(F)C2)Cn2nc3c(c2C1=O)CN(C(=O)Nc1ccc(F)c(Cl)c1)CC3 (centres unmarked) [Compound 132, N-(3-chloro-4-fluorophenyl)-4-(3,3-difluoropyrrolidine-1-carbonyl)-2-methyl-1-oxo-1,4,5,8,9,11-hexahydropyrido[4′,3′:3,4]pyrazolo[5,1-d][1,2,5]oxadiazepine-10(2H)-carboxamide]	1 to 100
CCN1OC(CO)Cn2nc3c(c2C1=O)CN(C(=O)Nc1ccc(F)c(Cl)c1)CC3 (single isomer, unassigned) [Compound 060_E1, (S*)—N-(3-chloro-4-fluorophenyl)-2-ethyl-4-(hydroxymethyl)-1-oxo-1,4,5,8,9,11-hexahydropyrido[4′,3′:3,4]pyrazolo[5,1-d][1,2,5]oxadiazepine-10(2H)-carboxamide]	1 to 100
CN1OC(CO)Cn2nc3c(c2C1=O)CN(C(=O)Nc1cccc(I)c1)CC3 (centres unmarked) [Compound 020, 4-(hydroxymethyl)-N-(3-iodophenyl)-2-methyl-1-oxo-1,4,5,8,9,11-hexahydropyrido[4′,3′:3,4]pyrazolo[5,1-d][1,2,5]oxadiazepine-10(2H)-carboxamide]	1 to 100
C[C@@H]1Cc2nn3c(c2CN1C(=O)Nc1cc(F)c(F)c(Cl)c1)C(=O)N(C)OCC3 [Compound 081, (R)—N-(3-chloro-4,5-difluorophenyl)-2,9-dimethyl-1-oxo-1,4,5,8,9,11-hexahydropyrido[4′,3′:3,4]pyrazolo[5,1-d][1,2,5]oxadiazepine-10(2H)-carboxamide]	1 to 100
C[C@@H]1Cc2nn3c(c2CN1C(=O)Nc1ccc(F)c(C(F)(F)F)c1)C(=O)N(C)OC(CO)C3 (stereo in doubt) [Compound 082_E1, (4S*,9R)—N-(4-fluoro-3-(trifluoromethyl)phenyl)-4-(hydroxymethyl)-2,9-dimethyl-1-oxo-1,4,5,8,9,11-hexahydropyrido[4′,3′:3,4]pyrazolo[5,1-d][1,2,5]oxadiazepine-10(2H)-carboxamide]	1 to 100
CN1OC(COC(N)=O)Cn2nc3c(c2C1=O)CN(C(=O)Nc1ccc(F)c(Cl)c1)CC3 (centres unmarked) [Compound 057, (10-((3-chloro-4-fluorophenyl)carbamoyl)-2-methyl-1-oxo-1,2,4,5,8,9,10,11-octahydropyrido[4′,3′:3,4]pyrazolo[5,1-d][1,2,5]oxadiazepin-4-yl)methyl carbamate]	1 to 100
COC(=O)NCC1Cn2nc3c(c2C(=O)N(C)O1)CN(C(=O)Nc1ccc(F)c(C#N)c1)[C@H](C)C3 (single isomer, unassigned) [Compound 180_D1, methyl (((4S*,9R)-10-((3-cyano-4-fluorophenyl)carbamoyl)-2,9-dimethyl-1-oxo-1,2,4,5,8,9,10,11-octahydropyrido[4′,3′:3,4]pyrazolo[5,1-d][1,2,5]oxadiazepin-4-yl)methyl)carbamate]	1 to 100
CN1OC(CF)Cn2nc3c(c2C1=O)CN(C(=O)Nc1ccc(F)c(Cl)c1)CC3 (single isomer, unassigned) [Compound 038_E1, (S*)—N-(3-chloro-4-fluorophenyl)-4-(fluoromethyl)-2-methyl-1-oxo-1,4,5,8,9,11-hexahydropyrido[4′,3′:3,4]pyrazolo[5,1-d][1,2,5]oxadiazepine-10(2H)-carboxamide]	1 to 100
C=CCOCC1Cn2nc3c(c2C(=O)N(C)O1)CN(C(=O)Nc1ccc(F)c(Cl)c1)CC3 (centres unmarked) [Compound 102, 4-(allyloxymethyl)-N-(3-chloro-4-fluoro-phenyl)-2-methyl-1-oxo-5,8,9,11-tetrahydro-4H-pyrido[2,3]pyrazolo[2,4-d][1,2,5]oxadiazepine-10-carboxamide]	1 to 100
CN1OC(CO)Cn2nc3c(c2C1=O)CN(C(=O)Nc1ccc(Cl)c(C(F)(F)F)c1)CC3 (centres unmarked) [Compound 025, N-(4-chloro-3-(trifluoromethyl)phenyl)-4-(hydroxymethyl)-2-methyl-1-oxo-1,4,5,8,9,11-hexahydropyrido[4′,3′:3,4]pyrazolo[5,1-d][1,2,5]oxadiazepine-10(2H)-carboxamide]	1 to 100
